The test relates to test plant species. Briefly: Post-emergent herbicidal activity test (greenhouse, foliar spray, visual growth reduction). In kind it is in vivo. The note with it: post-emergence, 336 h, 140 g ai/ha. The method, boiled down: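 Seedlings were raised 7-21 d in a greenhouse under a 15 h photoperiod until the first or second true leaf. Each compound, dissolved in acetone:DMSO 97:3 and diluted into a surfactant-containing spray mixture, was then applied at 187 L/ha. Plants were subirrigated, and growth reduction was scored visually at 14 d.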

The mark [1] stands for this setting: ECHCG: barnyardgrass (Echinochloa crus-galli), 14 days after application, read-out: Visual Growth Reduction (%) 14 Days After Application, ECHCG.
[2] abbreviates: IPOHE: ivy-leaf morning glory (Ipomoea hederacea), 14 days after application, read-out: Visual Growth Reduction (%) 14 Days After Application, IPOHE.
Setting [3] is: KCHSC: kochia (Bassia scoparia), 14 days after application, read-out: Visual Growth Reduction (%) 14 Days After Application, KCHSC.
Setting [4] is: ORYSA: rice (Oryza sativa), 14 days after application, read-out: Visual Growth Reduction (%) 14 Days After Application, ORYSA.
Setting [5] is: SETFA: giant foxtail (Setaria faberi), 14 days after application, read-out: Visual Growth Reduction (%) 14 Days After Application, SETFA.
[6] abbreviates: SORVU: grain sorghum (Sorghum vulgare), 14 days after application, read-out: Visual Growth Reduction (%) 14 Days After Application, SORVU.
Setting [7] is: STEME: common chickweed (Stellaria media), 14 days after application, read-out: Visual Growth Reduction (%) 14 Days After Application, STEME.
Setting [8] is: TRZAS: wheat, spring (Triticum aestivum), 14 days after application, read-out: Visual Growth Reduction (%) 14 Days After Application, TRZAS.
[9] abbreviates: blackgrass (Alopecurus myosuroides), 14 Days After Application, read-out: Visual Growth Reduction (%) ALOMY.
Where [10] appears, read: canada thistle (Cirsium arvense), 14 Days After Application, read-out: Visual Growth Reduction (%) CIRAR.
Setting [11] is: crabgrass (Digitaria sanguinalis), 14 Days After Application, read-out: Visual Growth Reduction (%) DIGSA.
[12] abbreviates: lambsquarters (Chenopodium album), 14 Days After Application, read-out: Visual Growth Reduction (%) CHEAL.
Where [13] appears, read: redroot pigweed (Amaranthus retroflexus), 14 Days After Application, read-out: Visual Growth Reduction (%) AMARE.
The mark [14] stands for this setting: wild oat (Avena fatua), 14 Days After Application, read-out: Visual Growth Reduction (%) AVEFA.
Where [15] appears, read: yellow nutsedge (Cyperus esculentus), 14 Days After Application, read-out: Visual Growth Reduction (%) CYPES.

Consider four molecules from patent US20230017045A1, “PYRIDINE AND PYRIMIDINE CARBOXYLATE HERBICIDES AND METHODS OF USE THEREOF” (Dow AgroSciences LLC, priority 2017, published 2023).

Read-outs that look alike come from different tables or passages of the source.

Turning to `COC(=O)c1nc(-c2cc([N+](=O)[O-])c(C(F)(F)F)cc2Cl)c(F)cc1Cl` [F322, Methyl 3-chloro-6-(2-chloro-5-nitro-4-(trifluoromethyl)phenyl)-5-fluoropicolinate], the pest or weed control at 140 g/ha runs as follows: under setting [1], 0 to 29%; under setting [2], 95 to 100%; under setting [3], 0 to 29%; under setting [4], 0 to 29%; under setting [5], 0 to 29%; under setting [6], 0 to 29%. The pest or weed control at 140 g/ha runs as follows: under setting [7], 0 to 29%; under setting [8], 0 to 29%; under setting [9], 0 to 29%; under setting [10], 30 to 44%; under setting [11], 0 to 29%; under setting [12], 75 to 84%. The pest or weed control at 140 g/ha lay in the range of 60 to 74% under setting [13], 0 to 29% under setting [14] and 0 to 29% under setting [15].

In the case of `COC(=O)c1nc(-c2cc(F)c(C(F)(F)F)cc2F)ccc1Cl` [F323, Methyl 3-chloro-6-(2,5-difluoro-4-(trifluoromethyl)phenyl)picolinate], the pest or weed control at 140 g/ha under setting [1] is 0 to 29%; the pest or weed control at 140 g/ha under setting [2] fell in the range of 95 to 100%; the pest or weed control at 140 g/ha under setting [3] was in the range of 30 to 44%; the pest or weed control at 140 g/ha under setting [4] lay within 0 to 29%; the pest or weed control at 140 g/ha under setting [5] is 30 to 44%; the pest or weed control at 140 g/ha under setting [6] lay within 85 to 94%. In addition, the pest or weed control at 140 g/ha is, setting by setting: under setting [7], 0 to 29%; under setting [8], 0 to 29%; under setting [9], 0 to 29%; under setting [10], 45 to 59%; under setting [11], 75 to 84%; under setting [12], 85 to 94%. In addition, the pest or weed control at 140 g/ha lay in the range of 75 to 84% under setting [13], 0 to 29% under setting [14] and 45 to 59% under setting [15].

As to `COC(=O)c1nc(-c2cc(F)c(C(F)(F)F)cc2F)c(F)cc1Cl` [F324, Methyl 3-chloro-6-(2,5-difluoro-4-(trifluoromethyl)phenyl)-5-fluoropicolinate], the pest or weed control at 140 g/ha lay within 0 to 29% under setting [1]; 95 to 100% under setting [2]; 85 to 94% under setting [3]; 0 to 29% under setting [4]; 60 to 74% under setting [5]; 75 to 84% under setting [6]. Further, the pest or weed control at 140 g/ha was in the range of 0 to 29% under setting [7]; 45 to 59% under setting [8]; 30 to 44% under setting [9]; 95 to 100% under setting [11]; 85 to 94% under setting [12]; 95 to 100% under setting [13]. The pest or weed control at 140 g/ha runs as follows: under setting [14], 30 to 44%; under setting [15], 60 to 74%.

`COC(=O)c1nc(-c2cc(F)c(C(F)(F)F)cc2F)c(Cl)cc1Cl` [F325, Methyl 3,5-dichloro-6-(2,5-difluoro-4-(trifluoromethyl)phenyl)picolinate]: the pest or weed control at 140 g/ha was 0 to 29% under setting [1]; 95 to 100% under setting [2]; 0 to 29% under setting [3]; 0 to 29% under setting [4]; 30 to 44% under setting [5]; 85 to 94% under setting [6]. For the same molecule, the pest or weed control at 140 g/ha lay within 0 to 29% under setting [7]; 0 to 29% under setting [8]; 0 to 29% under setting [9]; 85 to 94% under setting [10]; 75 to 84% under setting [11]; 95 to 100% under setting [12]. Besides, the pest or weed control at 140 g/ha is, setting by setting: under setting [13], 60 to 74%; under setting [14], 0 to 29%; under setting [15], 0 to 29%.
